Experimental findings from patent US20150225454A1, “TETRABRANCHED PEPTIDES AND ANALOGUES AS A NEW CLASS OF ANTIMICROBIALS AND THEIR PREPARATION THEREOF” (priority 2012, published 2015) are described below.

Where a SMILES comes first, the peptide text is derived from it. Bridges are numbered along the chain shown (N, C = ends). Roman numbers before positions name the chains, in order.

In this test the test system is IOBA-NHC cells. In kind it is cell-based, human. The conditions noted are these: 24 h. Here is the method:
IOBA-NHC cells were cultured under standard conditions (humidified atmosphere of 5% CO2 at 37° C.) in DMEM/F12 supplemented with 1 μg/ml bovine pancreas insulin, 2 ng/ml mouse epidermal growth factor, 0.1 μg/ml cholera toxin, […] hydrocortisone, 10% fetal bovine serum (FBS), 50 UI/ml penicillin, and 50 UI/ml streptomycin. Cells from passages 50-80 were used in all experiments. Every day, normal culture development was observed by phase-contrast microscopy. Cells were removed by gentle trypsin incubation at confluence and counted. They were seeded into 96 well culture plates (Corning, Schiphol-Rijk, The Netherlands) for microtitration analysis of flow cytotoxicity assay (˜10,000 cells/well). Cultures were kept at 37° C. for 24 h. Subconfluent cells (culture surface covering nearly 70%) were then exposed to various peptide concentrations (0.22-225 μM). Cytotoxicity was measured periodically using MultiTox-Fluor Multiplex assay kit (Promega, Wis., USA) by measuring the AFC fluorescence (λex=485 and λem=520 nm).
With `CC(C)[C@H](NC(=O)[C@H](CCCCN)NC(=O)[C@H](CCCNC(=N)N)NC(=O)CNC(=O)[C@@H](N)CCCNC(=N)N)C(=O)N[C@@H](C)C(=O)N[C@@H](CCCNC(=N)N)C(=O)N[C@@H](CCCNC(=N)N)C(=O)NCCCC[C@H](NC(=O)[C@H](CCCNC(=N)N)NC(=O)[C@H](CCCNC(=N)N)NC(=O)[C@H](C)NC(=O)[C@@H](NC(=O)[C@H](CCCCN)NC(=O)[C@H](CCCNC(=N)N)NC(=O)CNC(=O)[C@@H](N)CCCNC(=N)N)C(C)C)C(=O)NCCCC[C@H](NC(=O)[C@H](CCCCNC(=O)[C@H](CCCNC(=N)N)NC(=O)[C@H](CCCNC(=N)N)NC(=O)[C@H](C)NC(=O)[C@@H](NC(=O)[C@H](CCCCN)NC(=O)[C@H](CCCNC(=N)N)NC(=O)CNC(=O)[C@@H](N)CCCNC(=N)N)C(C)C)NC(=O)[C@H](CCCNC(=N)N)NC(=O)[C@H](CCCNC(=N)N)NC(=O)[C@H](C)NC(=O)[C@@H](NC(=O)[C@H](CCCCN)NC(=O)[C@H](CCCNC(=N)N)NC(=O)CNC(=O)[C@@H](N)CCCNC(=N)N)C(C)C)C(=O)N[C@@H](CCCCN)C(=O)O` [Peptide B4010-V6A] (I: H-RGRKVARRKKK-OH / II: H-RGRKVARRK / III: H-RGRKVARR / IV: H-RGRKVARR; amide I:9-IV:C, I:10-II:C, II:9-III:C), the 50% effective concentration (EC50) is above 225 µM. The figure for `CC(C)[C@H](NC(=O)[C@H](C)NC(=O)[C@H](C)NC(=O)CNC(=O)[C@@H](N)CCCNC(=N)N)C(=O)N[C@H](C(=O)N[C@@H](CCCNC(=N)N)C(=O)N[C@@H](CCCNC(=N)N)C(=O)NCCCC[C@H](NC(=O)[C@H](CCCNC(=N)N)NC(=O)[C@H](CCCNC(=N)N)NC(=O)[C@@H](NC(=O)[C@@H](NC(=O)[C@H](C)NC(=O)[C@H](C)NC(=O)CNC(=O)[C@@H](N)CCCNC(=N)N)C(C)C)C(C)C)C(=O)NCCCC[C@H](NC(=O)[C@H](CCCCNC(=O)[C@H](CCCNC(=N)N)NC(=O)[C@H](CCCNC(=N)N)NC(=O)[C@@H](NC(=O)[C@@H](NC(=O)[C@H](C)NC(=O)[C@H](C)NC(=O)CNC(=O)[C@@H](N)CCCNC(=N)N)C(C)C)C(C)C)NC(=O)[C@H](CCCNC(=N)N)NC(=O)[C@H](CCCNC(=N)N)NC(=O)[C@@H](NC(=O)[C@@H](NC(=O)[C@H](C)NC(=O)[C@H](C)NC(=O)CNC(=O)[C@@H](N)CCCNC(=N)N)C(C)C)C(C)C)C(=O)N[C@@H](CCCCN)C(=O)O)C(C)C` [[(SEQ ID NO: 10)2K]2KK] (I: H-RGAAVVRRKKK-OH / II: H-RGAAVVRRK / III: H-RGAAVVRR / IV: H-RGAAVVRR; amide I:9-IV:C, I:10-II:C, II:9-III:C; N-terminus and C-terminus assumed) is 250 µM; for `C[C@H](NC(=O)[C@H](C)NC(=O)[C@H](CCCNC(=N)N)NC(=O)CNC(=O)[C@@H](N)CCCNC(=N)N)C(=O)N[C@@H](C)C(=O)N[C@@H](CCCNC(=N)N)C(=O)N[C@@H](CCCNC(=N)N)C(=O)NCCCC[C@H](NC(=O)[C@H](CCCNC(=N)N)NC(=O)[C@H](CCCNC(=N)N)NC(=O)[C@H](C)NC(=O)[C@H](C)NC(=O)[C@H](C)NC(=O)[C@H](CCCNC(=N)N)NC(=O)CNC(=O)[C@@H](N)CCCNC(=N)N)C(=O)NCCCC[C@H](NC(=O)[C@H](CCCCNC(=O)[C@H](CCCNC(=N)N)NC(=O)[C@H](CCCNC(=N)N)NC(=O)[C@H](C)NC(=O)[C@H](C)NC(=O)[C@H](C)NC(=O)[C@H](CCCNC(=N)N)NC(=O)CNC(=O)[C@@H](N)CCCNC(=N)N)NC(=O)[C@H](CCCNC(=N)N)NC(=O)[C@H](CCCNC(=N)N)NC(=O)[C@H](C)NC(=O)[C@H](C)NC(=O)[C@H](C)NC(=O)[C@H](CCCNC(=N)N)NC(=O)CNC(=O)[C@@H](N)CCCNC(=N)N)C(=O)N[C@@H](CCCCN)C(=O)O` [[(SEQ ID NO: 16)2K]2KK] (I: H-RGRAAARRKKK-OH / II: H-RGRAAARRK / III: H-RGRAAARR / IV: H-RGRAAARR; amide I:9-IV:C, I:10-II:C, II:9-III:C; N-terminus and C-terminus assumed) it is 169 µM. The figure for `C[C@H](NC(=O)CNC(=O)[C@@H](N)CCCNC(=N)N)C(=O)N[C@@H](C)C(=O)N[C@@H](C)C(=O)N[C@@H](C)C(=O)N[C@@H](CCCNC(=N)N)C(=O)N[C@@H](CCCNC(=N)N)C(=O)NCCCC[C@H](NC(=O)[C@H](CCCNC(=N)N)NC(=O)[C@H](CCCNC(=N)N)NC(=O)[C@H](C)NC(=O)[C@H](C)NC(=O)[C@H](C)NC(=O)[C@H](C)NC(=O)CNC(=O)[C@@H](N)CCCNC(=N)N)C(=O)NCCCC[C@H](NC(=O)[C@H](CCCCNC(=O)[C@H](CCCNC(=N)N)NC(=O)[C@H](CCCNC(=N)N)NC(=O)[C@H](C)NC(=O)[C@H](C)NC(=O)[C@H](C)NC(=O)[C@H](C)NC(=O)CNC(=O)[C@@H](N)CCCNC(=N)N)NC(=O)[C@H](CCCNC(=N)N)NC(=O)[C@H](CCCNC(=N)N)NC(=O)[C@H](C)NC(=O)[C@H](C)NC(=O)[C@H](C)NC(=O)[C@H](C)NC(=O)CNC(=O)[C@@H](N)CCCNC(=N)N)C(=O)N[C@@H](CCCCN)C(=O)O` [[(SEQ ID NO: 17)2K]2KK] (I: H-RGAAAARRKKK-OH / II: H-RGAAAARRK / III: H-RGAAAARR / IV: H-RGAAAARR; amide I:9-IV:C, I:10-II:C, II:9-III:C; N-terminus and C-terminus assumed) is above 265 µM; for `CC(C)[C@H](NC(=O)[C@H](CCCCN)NC(=O)[C@H](CCCNC(=N)N)NC(=O)CNC(=O)[C@@H](N)CCCNC(=N)N)C(=O)N[C@H](C(=O)N[C@@H](C)C(=O)N[C@@H](C)C(=O)NCCCC[C@H](NC(=O)[C@H](C)NC(=O)[C@H](C)NC(=O)[C@@H](NC(=O)[C@@H](NC(=O)[C@H](CCCCN)NC(=O)[C@H](CCCNC(=N)N)NC(=O)CNC(=O)[C@@H](N)CCCNC(=N)N)C(C)C)C(C)C)C(=O)NCCCC[C@H](NC(=O)[C@H](CCCCNC(=O)[C@H](C)NC(=O)[C@H](C)NC(=O)[C@@H](NC(=O)[C@@H](NC(=O)[C@H](CCCCN)NC(=O)[C@H](CCCNC(=N)N)NC(=O)CNC(=O)[C@@H](N)CCCNC(=N)N)C(C)C)C(C)C)NC(=O)[C@H](C)NC(=O)[C@H](C)NC(=O)[C@@H](NC(=O)[C@@H](NC(=O)[C@H](CCCCN)NC(=O)[C@H](CCCNC(=N)N)NC(=O)CNC(=O)[C@@H](N)CCCNC(=N)N)C(C)C)C(C)C)C(=O)N[C@@H](CCCCN)C(=O)O)C(C)C` [[(SEQ ID NO: 11)2K]2KK] (I: H-RGRKVVAAKKK-OH / II: H-RGRKVVAAK / III: H-RGRKVVAA / IV: H-RGRKVVAA; amide I:9-IV:C, I:10-II:C, II:9-III:C; N-terminus and C-terminus assumed) it is above 257 µM.
